{
  "source": "patent US20230192657A1",
  "about": "“1,2,4-TRIAZOLINONE CB1 INHIBITORS” (Goldfinch Bio, Inc., priority 2020, published 2023)",
  "note": "pIC50: −log10 of the molar value.",
  "data": [
    {"biological_target": "CB1 receptor (Homo sapiens, UniProt P21554)", "sequence (P21554 whole entry)": "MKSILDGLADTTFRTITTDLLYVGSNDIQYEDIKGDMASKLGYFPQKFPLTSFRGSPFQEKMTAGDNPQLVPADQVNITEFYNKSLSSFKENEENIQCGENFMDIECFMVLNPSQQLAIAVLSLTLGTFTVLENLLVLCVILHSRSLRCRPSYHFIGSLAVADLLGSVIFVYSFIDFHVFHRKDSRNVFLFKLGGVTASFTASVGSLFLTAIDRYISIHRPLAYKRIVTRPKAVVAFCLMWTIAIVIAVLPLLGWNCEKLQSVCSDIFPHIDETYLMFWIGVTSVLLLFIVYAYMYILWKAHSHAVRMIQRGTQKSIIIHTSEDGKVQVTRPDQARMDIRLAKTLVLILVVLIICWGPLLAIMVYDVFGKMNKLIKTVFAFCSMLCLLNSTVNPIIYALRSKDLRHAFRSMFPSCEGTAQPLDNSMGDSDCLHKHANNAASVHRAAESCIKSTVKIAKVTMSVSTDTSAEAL", "test": "CB1 cAMP Antagonist Assay (LANCE Ultra cAMP kit)", "assay_type": "cell-based", "conditions": "Flp-In CHO cells stably expressing the CB1 receptor; forskolin and CP55940 agonist at EC90; cAMP FRET readout", "description": "CB1 cAMP Antagonist Assay\nLANCE Ultra cAMP kit (Perkin Elmer) was used to quantitate the amount of 3′,5′-cyclic adenosine monophosphate (cAMP) produced in Flp-In CHO (Invitrogen) cells stably expressing the CB1 receptor.\nForskolin was initially titrated to determine the response of the cells. The EC90 of forskolin was used for compound testing. CP55940 was titrated and used with EC90 of forskolin to determine the level of agonist stimulation. EC90 of the agonist was used for subsequent compound testing.\nForskolin (Sigma), CP55940 (Cayman Chemicals), and AM251 (MCE) were diluted in 100% DMSO, starting at 100 mM, 1 mM, and 1 mM respectively, in 3-fold serial dilutions. Test compounds were diluted in 100% DMSO starting from 10 mM, 3-fold dilutions. The cAMP assay buffer contains 1x Hank’s Buffered Saline Solution with Ca^2+ and Mg^2+ (Invitrogen), 5.3 mM HEPES (Invitrogen), 0.05% BSA, 0.5 mM IBMX (Sigma).\nFor all assays, cells were harvested, counted, and diluted in cAMP assay buffer to 1× 10^5 cells/mL. Only cells with viability >85% were used for the assay. Cells were seeded at 1000 cells/well in 384-well plates and 10 nL/well AM251 or test compound was added and incubated at 37° C. for 10 min. […] To detect the amount of cAMP produced, 5 µL of a 100x diluted stock of Eu-cAMP tracer and 5 µL of 200x diluted stock of Ulight-anti-cAMP were added to each well, and the plate incubated at 25° C. for 15 min. The FRET signal was read using an EnVision microplate reader (λex=320 nm, λem=615 nm and 665 nm).\nThe IC50 is determined by fitting the percentage of inhibition as a function of compound concentrations with the Hill equation, using a 4-parameter fit in either XLfit or GraphPad Prism.", "values": [
      {"smiles": "C[C@@H](C(N)=O)n1c(N2C[C@H](c3ccccc3)C(c3ccc(Cl)cc3)=N2)nn(Cc2ccc(Cl)cn2)c1=O", "note": "[Compound 207]", "pIC50": "> 7.00"},
      {"smiles": "Cn1c(N2C[C@@H](c3ccccc3)C(c3ccc(Cl)cc3)=N2)nn(CCc2ccc(C(=O)NCCO)cc2)c1=O", "note": "[Compound 210]", "pIC50": "< 5.30"},
      {"smiles": "O=c1n(Cc2ccc(Cl)cc2)nc(N2CC3(CCc4ccccc43)C(c3ccc(Cl)cc3)=N2)n1CCO", "note": "(stereo in doubt) [Compound 118, 3-[(1R)-3-(4-chlorophenyl)-1,2,3,5-tetrahydrospiro[indene-1,4-pyrazol]-1-yl]-1-[(4-chlorophenyl)methyl]-4-(2-hydroxyethyl)-4,5-dihydro-1H-1,2,4-triazol-5-one]", "pIC50": "6.00 to 7.00"},
      {"smiles": "C[C@H](C(=O)NCCO)n1c(N2C[C@H](c3ccccc3)C(c3ccc(Cl)cc3)=N2)nn(Cc2ccc(Cl)cc2)c1=O", "note": "[Compound 190, (2R)-2-[3-[(4S)-3-(4-chlorophenyl)-4-phenyl-4,5-dihydropyrazol-1-yl]-1-[(4-chlorophenyl)methyl]-5-oxo-1,2,4-triazol-4-yl]-N-(2-hydroxyethyl)propanamide]", "pIC50": "> 7.00"},
      {"smiles": "NC(=O)Cn1c(N2C[C@@]3(CCc4ccccc43)C(c3ccc(Cl)cc3)=N2)nn(-c2ccc(Cl)cc2)c1=O", "note": "[Compound 119]", "pIC50": "< 5.30"},
      {"smiles": "O=C(O)CCn1c(N2C[C@]3(CCc4ccccc43)C(c3ccc(Cl)cc3)=N2)nn(-c2ccc(Cl)cc2)c1=O", "note": "[Compound 129]", "pIC50": "< 5.30"},
      {"smiles": "NC(=O)CCn1c(N2CC3(CCc4ccccc43)C(c3ccc(Cl)cc3)=N2)nn(Cc2ccc(Cl)cc2)c1=O", "note": "(stereo in doubt) [Compound 133, 3-[3-[(1S)-3-(4-chlorophenyl)-1,2,3,5-tetrahydrospiro[indene-1,4-pyrazol]-1-yl]-1-[(4-chlorophenyl)methyl]-5-oxo-4,5-dihydro-1H-1,2,4-triazol-4-yl]propanamide]", "pIC50": "5.30 to 6.00"},
      {"smiles": "C[C@H](C(N)=O)n1c(N2C[C@H](c3ccccc3)C(c3ccc(Cl)cc3)=N2)n[nH]c1=O", "note": "[Compound 206]", "pIC50": "< 5.30"},
      {"smiles": "O=c1n(Cc2ccc(Cl)cc2)nc(N2CC3(CCc4ccccc43)C(c3ccc(Cl)cc3)=N2)n1CCO", "note": "(stereo in doubt) [Compound 121, 3-[(1S)-3-(4-chlorophenyl)-1,2,3,5-tetrahydrospiro[indene-1,4-pyrazol]-1-yl]-1-[(4-chlorophenyl)methyl]-4-(2-hydroxyethyl)-4,5-dihydro-1H-1,2,4-triazol-5-one]", "pIC50": "6.00 to 7.00"},
      {"smiles": "Cn1nc(N2CC(c3ccccc3)C(c3ccc(Cl)cc3)=N2)n(Cc2ccccc2)c1=O", "note": "(centres unmarked) [Compound 193, 4-benzyl-5-[3-(4-chlorophenyl)-4-phenyl-4,5-dihydropyrazol-1-yl]-2-methyl-1,2,4-triazol-3-one]", "pIC50": "6.00 to 7.00"},
      {"smiles": "NC(=O)Cn1c(N2C[C@]3(CCc4ccccc43)C(c3ccc(Cl)cc3)=N2)nn(Cc2ccc(Cl)cc2)c1=O", "note": "[Compound 122, 2-[3-[(1R)-3-(4-chlorophenyl)-1,2,3,5-tetrahydrospiro[indene-1,4-pyrazol]-1-yl]-1-[(4-chlorophenyl)methyl]-5-oxo-4,5-dihydro-1H-1,2,4-triazol-4-yl]acetamide]", "pIC50": "6.00 to 7.00"},
      {"smiles": "C[C@H](C(N)=O)n1c(N2C[C@@H](c3ccccc3)C(c3ccc(Cl)cc3)=N2)nn(Cc2ccc(CN3CCOCC3)cc2)c1=O", "note": "[Compound 164]", "pIC50": "< 5.30"},
      {"smiles": "COCCn1c(N2CC3(CCc4ccccc43)C(c3ccc(Cl)cc3)=N2)nn(Cc2ccc(Cl)cc2)c1=O", "note": "(stereo in doubt) [Compound 120, 3-[(1R)-3-(4-chlorophenyl)-1,2,3,5-tetrahydrospiro[indene-1,4-pyrazol]-1-yl]-1-[(4-chlorophenyl)methyl]-4-(2-methoxyethyl)-4,5-dihydro-1H-1,2,4-triazol-5-one]", "pIC50": "5.30 to 6.00"},
      {"smiles": "NC(=O)CCn1c(N2CC3(CCc4ccccc43)C(c3ccc(Cl)cc3)=N2)nn(Cc2ccc(Cl)cc2)c1=O", "note": "(stereo in doubt) [Compound 132, 3-[3-[(1R)-3-(4-chlorophenyl)-1,2,3,5-tetrahydrospiro[indene-1,4-pyrazol]-1-yl]-1-[(4-chlorophenyl)methyl]-5-oxo-4,5-dihydro-1H-1,2,4-triazol-4-yl]propanamide]", "pIC50": "5.30 to 6.00"},
      {"smiles": "C[C@H](c1ccc(Cl)cc1)n1nc(N2C[C@@H](c3ccccc3)C(c3ccc(Cl)cc3)=N2)n(CC(N)=O)c1=O", "note": "[Compound 152]", "pIC50": "5.30 to 6.00"},
      {"smiles": "O=c1n(-c2ccc(Cl)cc2)nc(N2C[C@@]3(CCc4ccccc43)C(c3ccc(Cl)cc3)=N2)n1CCO", "note": "[Compound 112]", "pIC50": "< 5.30"},
      {"smiles": "Cn1c(N2C[C@H](c3ccccc3)C(c3ccc(Cl)cc3)=N2)nn(CCc2ccc(C(=O)NCCO)cc2)c1=O", "note": "[Compound 200]", "pIC50": "6.00 to 7.00"},
      {"smiles": "C[C@H](C(N)=O)n1c(N2C[C@H](c3ccccc3)C(c3ccc(Cl)cc3)=N2)nn(Cc2ccc(Cl)cn2)c1=O", "note": "[Compound 205]", "pIC50": "> 7.00"},
      {"smiles": "Cc1ncc(Cn2nc(N3CC(c4ccccc4)C(c4ccc(Cl)cc4)=N3)n(C)c2=O)cn1", "note": "(centres unmarked) [Compound 196]", "pIC50": "6.00 to 7.00"},
      {"smiles": "C[C@H](C(=O)NCCO)n1c(N2C[C@@H](c3ccccc3)C(c3ccc(Cl)cc3)=N2)nn(Cc2ccc(Cl)cc2)c1=O", "note": "[Compound 191, (2R)-2-[3-[(4R)-3-(4-chlorophenyl)-4-phenyl-4,5-dihydropyrazol-1-yl]-1-[(4-chlorophenyl)methyl]-5-oxo-1,2,4-triazol-4-yl]-N-(2-hydroxyethyl)propanamide]", "pIC50": "6.00 to 7.00"},
      {"smiles": "O=C(O)CCn1c(N2C[C@@]3(CCc4ccccc43)C(c3ccc(Cl)cc3)=N2)nn(-c2ccc(Cl)cc2)c1=O", "note": "[Compound 130]", "pIC50": "< 5.30"},
      {"smiles": "NC(=O)CCn1c(N2C[C@@]3(CCc4ccccc43)C(c3ccc(Cl)cc3)=N2)nn(-c2ccc(Cl)cc2)c1=O", "note": "[Compound 128]", "pIC50": "< 5.30"},
      {"smiles": "NC(=O)Cn1c(N2C[C@]3(CCc4ccccc43)C(c3ccc(Cl)cc3)=N2)nn(-c2ccc(Cl)cc2)c1=O", "note": "[Compound 124, 2-[1-(4-chlorophenyl)-3-[(1R)-3-(4-chlorophenyl)-1,2,3,5-tetrahydrospiro[indene-1,4-pyrazol]-1-yl]-5-oxo-4,5-dihydro-1H-1,2,4-triazol-4-yl]acetamide]", "pIC50": "6.00 to 7.00"},
      {"smiles": "Cn1c(N2C[C@@H](c3ccccc3)C(c3ccc(Cl)cc3)=N2)nn(Cc2ccccc2)c1=O", "note": "[Compound 166]", "pIC50": "6.00 to 7.00"},
      {"smiles": "COc1ccc(Cn2nc(N3CC(c4ccccc4)C(c4ccc(Cl)cc4)=N3)n([C@H](C)C(N)=O)c2=O)cc1OC", "note": "(stereo partly drawn) [Compound 197, (2R)-2-[3-[3-(4-chlorophenyl)-4-phenyl-4,5-dihydropyrazol-1-yl]-1-[(3,4-dimethoxyphenyl)methyl]-5-oxo-1,2,4-triazol-4-yl]propanamide]", "pIC50": "6.00 to 7.00"},
      {"smiles": "Cn1c(N2C[C@H](c3ccccc3)C(c3ccc(Cl)cc3)=N2)nn(Cc2ccc(CN3CCOCC3)cc2)c1=O", "note": "[Compound 136, 3-[(4S)-3-(4-chlorophenyl)-4-phenyl-4,5-dihydro-1H-pyrazol-1-yl]-4-methyl-1-([4-[(morpholin-4-yl)methyl]phenyl]methyl)-4,5-dihydro-1H-1,2,4-triazol-5-one]", "pIC50": "6.00 to 7.00"},
      {"smiles": "Cn1c(N2CC(c3ccccc3)C(c3ccc(Cl)cc3)=N2)nn(Cc2ccc(C(=O)NCCO)cc2)c1=O", "note": "(centres unmarked) [Compound 173]", "pIC50": "5.30 to 6.00"},
      {"smiles": "Cn1c(N2CC(c3ccccc3)C(c3ccc(Cl)cc3)=N2)nn(Cc2cccc(C(N)=O)c2)c1=O", "note": "(centres unmarked) [Compound 182]", "pIC50": "6.00 to 7.00"},
      {"smiles": "Cn1c(N2C[C@@]3(CCc4ccccc43)C(c3ccc(Cl)cc3)=N2)nn(-c2ccc(Cl)cc2)c1=O", "note": "[Compound 116]", "pIC50": "< 5.30"},
      {"smiles": "Cn1nc(N2C[C@]3(CCc4ccccc43)C(c3ccc(Cl)cc3)=N2)n(C)c1=O", "note": "[Compound 138]", "pIC50": "< 5.30"},
      {"smiles": "Cn1c(N2C[C@@H](c3ccccc3)C(c3ccc(Cl)cc3)=N2)nn(Cc2ccc(Cl)cc2)c1=O", "note": "[Compound 103]", "pIC50": "> 7.00"},
      {"smiles": "COc1ccc(Cn2nc(N3C[C@@H](c4ccccc4)C(c4ccc(Cl)cc4)=N3)n(C)c2=O)cc1", "note": "[Compound 142]", "pIC50": "5.30 to 6.00"},
      {"smiles": "O=c1[nH]nc(N2C[C@@H](c3ccccc3)C(c3ccc(Cl)cc3)=N2)[nH]1", "note": "[Compound 208, 5-[(4R)-3-(4-chlorophenyl)-4-phenyl-4,5-dihydropyrazol-1-yl]-2,4-dihydro-1,2,4-triazol-3-one]", "pIC50": "< 5.30"},
      {"smiles": "Cc1ccc(Cn2nc(N3C[C@H](c4ccccc4)C(c4ccc(Cl)cc4)=N3)n(C)c2=O)cc1", "note": "[Compound 163]", "pIC50": "> 7.00"},
      {"smiles": "CN1CCN(Cc2ccc(Cn3nc(N4C[C@H](c5ccccc5)C(c5ccc(Cl)cc5)=N4)n(CC(N)=O)c3=O)cc2)CC1", "note": "[Compound 149]", "pIC50": "< 5.30"},
      {"smiles": "Cn1c(N2CC3(CCc4ccccc43)C(c3ccc(Cl)cc3)=N2)nn(CC2CCCCC2)c1=O", "note": "(stereo in doubt) [Compound 139, 3-[(1S)-3-(4-chlorophenyl)-1,2,3,5-tetrahydrospiro[indene-1,4-pyrazol]-1-yl]-1-(cyclohexylmethyl)-4-methyl-4,5-dihydro-1H-1,2,4-triazol-5-one]", "pIC50": "6.00 to 7.00"},
      {"smiles": "Cn1c(N2C[C@@H](c3ccccc3)C(c3ccc(Cl)cc3)=N2)nn(-c2ccc(CN3CCOCC3)cc2)c1=O", "note": "[Compound 146]", "pIC50": "< 5.30"},
      {"smiles": "Cn1c(N2C[C@H](c3ccccc3)C(c3ccc(Cl)cc3)=N2)nn(Cc2ccc(Cl)cc2)c1=O", "note": "[Compound 102]", "pIC50": "6.00 to 7.00"}
    ]}
  ]
}
